{"source": "the supplement of paper PMC10307832", "assay_in_all_cases": "relative viability (nuclei count vs DMSO), 5 days (fraction); higher = more cells survive", "key": {"Pictilisib + Linsitinib": {"compound": "CS(=O)(=O)N1CCN(Cc2cc3nc(-c4cccc5[nH]ncc45)nc(N4CCOCC4)c3s2)CC1 [Pictilisib] + C[C@]1(O)C[C@@H](c2nc(-c3ccc4ccc(-c5ccccc5)nc4c3)c3c(N)nccn32)C1 [Linsitinib] (partner 1 µM)", "procedure,_shortened": "(§1)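 Lung cancer cell lines in 1536-well plates got either a single drug or a fixed anchor-drug dose together with five library-drug doses (not always all listed) in √10 steps, by pin tool, on the day after seeding. Nuclei were counted after 5 days, and relative viability is the treated-to-vehicle ratio of nuclei counts. Values are medians of duplicate plates.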"}, "MK-2206 + Pemetrexed": {"compound": "NC1(c2ccc(-c3nc4ccn5c(=O)[nH]nc5c4cc3-c3ccccc3)cc2)CCC1 [MK-2206] + Nc1nc2[nH]cc(CCc3ccc(C(=O)N[C@@H](CCC(=O)O)C(=O)O)cc3)c2c(=O)[nH]1 [Pemetrexed] (partner 0.2 µM)", "procedure,_shortened": "as §1"}, "Pictilisib + Dasatinib": {"compound": "CS(=O)(=O)N1CCN(Cc2cc3nc(-c4cccc5[nH]ncc45)nc(N4CCOCC4)c3s2)CC1 [Pictilisib] + Cc1nc(Nc2ncc(C(=O)Nc3c(C)cccc3Cl)s2)cc(N2CCN(CCO)CC2)n1 [Dasatinib] (partner 0.075 µM)", "procedure,_shortened": "as §1"}, "Pictilisib + Lapatinib": {"compound": "CS(=O)(=O)N1CCN(Cc2cc3nc(-c4cccc5[nH]ncc45)nc(N4CCOCC4)c3s2)CC1 [Pictilisib] + CS(=O)(=O)CCNCc1ccc(-c2ccc3ncnc(Nc4ccc(OCc5cccc(F)c5)c(Cl)c4)c3c2)o1 [Lapatinib] (partner 2 µM)", "procedure,_shortened": "as §1"}, "Pictilisib + Phenformin": {"compound": "CS(=O)(=O)N1CCN(Cc2cc3nc(-c4cccc5[nH]ncc45)nc(N4CCOCC4)c3s2)CC1 [Pictilisib] + N=C(N)NC(=N)NCCc1ccccc1 [Phenformin] (partner 250 µM)", "procedure,_shortened": "as §1"}}, "data": [{"cell line": "UMC-11", "values": [{"measurement": "relative viability", "setting": "Pictilisib + Linsitinib; first compound 0.02 µM", "result": 0.973}, {"measurement": "relative viability", "setting": "Pictilisib + Linsitinib; first compound 0.06325 µM", "result": 1.03}, {"measurement": "relative viability", "setting": "Pictilisib + Linsitinib; first compound 0.6325 µM", "result": 1.07}, {"measurement": "relative viability", "setting": "Pictilisib + Linsitinib; first compound 2 µM", "result": 0.928}, {"measurement": "relative viability", "setting": "MK-2206 + Pemetrexed; first compound 0.01 µM", "result": 0.862}, {"measurement": "relative viability", "setting": "MK-2206 + Pemetrexed; first compound 0.03162 µM", "result": 0.763}, {"measurement": "relative viability", "setting": "MK-2206 + Pemetrexed; first compound 0.3162 µM", "result": 0.836}, {"measurement": "relative viability", "setting": "MK-2206 + Pemetrexed; first compound 1 µM", "result": 0.791}, {"measurement": "relative viability", "setting": "Pictilisib + Dasatinib; first compound 0.02 µM", "result": 0.449}, {"measurement": "relative viability", "setting": "Pictilisib + Dasatinib; first compound 0.06325 µM", "result": 0.461}, {"measurement": "relative viability", "setting": "Pictilisib + Dasatinib; first compound 0.6325 µM", "result": 0.458}, {"measurement": "relative viability", "setting": "Pictilisib + Dasatinib; first compound 2 µM", "result": 0.515}, {"measurement": "relative viability", "setting": "Pictilisib + Lapatinib; first compound 0.02 µM", "result": 1.09}, {"measurement": "relative viability", "setting": "Pictilisib + Lapatinib; first compound 0.06325 µM", "result": 1.21}, {"measurement": "relative viability", "setting": "Pictilisib + Lapatinib; first compound 0.6325 µM", "result": 1.03}, {"measurement": "relative viability", "setting": "Pictilisib + Lapatinib; first compound 2 µM", "result": 0.887}, {"measurement": "relative viability", "setting": "Pictilisib + Phenformin; first compound 0.02 µM", "result": 0.331}, {"measurement": "relative viability", "setting": "Pictilisib + Phenformin; first compound 0.06325 µM", "result": 0.346}, {"measurement": "relative viability", "setting": "Pictilisib + Phenformin; first compound 0.6325 µM", "result": 0.312}, {"measurement": "relative viability", "setting": "Pictilisib + Phenformin; first compound 2 µM", "result": 0.315}]}]}
